Results as given in patent publication US7595340B2, “Serotonin and norepinephrine reuptake inhibitor and uses thereof” (Wyeth, priority 2005, dated 2009).
In brackets after ≈: the same amount, converted by molar mass.

What was measured:
Hygroscopicity profile = assay type: physicochemical
Description: FIG. 2 provides a chart of the hygroscopicity profile of 4-[2-dimethylamino-1-(4-phenyl)-ethyl-tetrahydro-pyran-4-ol.

[1] = Solution stability in aqueous solutions; assay type: physicochemical; conditions: room temperature, all aqueous solutions (pH 1.25-8.8)
pH-solubility profile = assay type: physicochemical; conditions: aqueous solution, thermodynamic from solid
Description: FIG. 4 provides a chart of the pH - solubility profile of 4-[2-dimethylamino-1-(4-phenyl)-ethyl-tetrahydro-pyran-4-ol.

[2] = target: human serotonin transporter (Homo sapiens, UniProt P31645); assay: human serotonin transporter assay (in-house); assay type: binding; conditions: initial experiments, in-house assays
Description: In initial experiments using in-house assays, 4-[2-dimethylamino-1-(4-hydroxy-phenyl)-ethyl]-tetrahydro-pyran-4-ol has been found active in a human serotonin transporter assay.

human serotonin transporter, sequence (P31645 whole entry): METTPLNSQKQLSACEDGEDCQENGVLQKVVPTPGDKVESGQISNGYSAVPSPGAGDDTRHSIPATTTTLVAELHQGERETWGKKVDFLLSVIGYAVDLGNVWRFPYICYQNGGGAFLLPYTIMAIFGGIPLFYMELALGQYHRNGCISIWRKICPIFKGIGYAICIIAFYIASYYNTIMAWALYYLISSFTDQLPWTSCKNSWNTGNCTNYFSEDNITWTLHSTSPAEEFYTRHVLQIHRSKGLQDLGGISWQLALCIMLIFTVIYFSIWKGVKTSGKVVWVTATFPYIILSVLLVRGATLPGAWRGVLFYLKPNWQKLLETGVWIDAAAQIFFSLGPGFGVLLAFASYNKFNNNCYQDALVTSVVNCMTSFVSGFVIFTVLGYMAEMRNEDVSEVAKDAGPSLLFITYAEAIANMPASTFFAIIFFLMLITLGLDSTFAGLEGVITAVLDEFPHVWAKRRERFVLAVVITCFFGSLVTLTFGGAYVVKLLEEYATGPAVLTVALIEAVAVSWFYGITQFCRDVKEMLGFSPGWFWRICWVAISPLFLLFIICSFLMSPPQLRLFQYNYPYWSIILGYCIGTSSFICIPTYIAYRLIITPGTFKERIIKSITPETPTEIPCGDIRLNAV

Hygroscopicity (Hygroscopicity profile): Non-hygroscopic
Hygroscopicity, weight gain (Hygroscopicity profile; @ 70% RH): 2%
Hygroscopicity, weight gain (Hygroscopicity profile; @ 90% RH, weight gain was lost when returned to 10% RH or 0% RH): 6%
Solution Stability (time stable) [1]: at least 24 hours
solubility (pH-solubility profile; pH 4.4, aqueous buffer, Final pH 4.40): 3910 µg/mL (≈ 14.7 mM)
solubility (pH-solubility profile; pH 7.1, aqueous buffer, Final pH 7.10): 3470 µg/mL (≈ 13.1 mM)
solubility (pH-solubility profile; pH 8.8, aqueous buffer, Final pH 8.80): 2960 µg/mL (≈ 11.2 mM)
solubility (pH-solubility profile; simulated gastric fluid, Final pH 1.25): 13600 µg/mL (≈ 51.1 mM)
activity in human serotonin transporter assay [2]: active
Compound: CN(C)CC(c1ccc(O)cc1)C1(O)CCOCC1 (stereo not drawn) [4-[2-Dimethylamino-1-(4-Hydroxy-Phenyl)-ethyl]-Tetrahydro-Pyran-4-ol]
